These results are taken from US6524625B2, “Physiologically active extract obtained from indigo plant polygonum tinctorium” (Kabushiki Kaisha Hayashibara Seibutsu Kagaku Kenkyuto, priority 1998, dated 2003).

Molecules are shown by their SMILES. In brackets after ≈: the same amount, converted by molar mass.

For data set [1], the system named is Helicobacter pylori (NCTC 11638). The data set can be described thus: Antiseptic action: MIC, agar plate dilution method. The data set is classed as cell-based.
Data set [2] in a line: Water-solubility (dissolving in refined water for the NBT test). In kind it is physicochemical. To be noted: NBT evaluation impossible. The protocol:
Then the formed formazan was quantified on spectro-chemical analysis. Either of the present physiologically active extracts was dissolved in a refined water to give an appropriate concentration, and the solutions were used for test samples. As a control it was provided by replacing the test samples with a refined water. The 50% inhibitory activity for the formation of formazan in the control was defined as a one unit activity of radical-entrapping action. Based of the definition, the radical-entrapping activity of one gram of each test sample was determined.
Particularly, the radical-entrapping action of the physiologically active substance of Experiment 1 and Compounds 5 and 6 of Experiment 2 was remarkable.

For data set [3], the system named is vesicular stomatitis virus (VSV). Briefly: microbe, parasite or virus in culture. To be noted: L929, 24 h, read-out: 50% Growth inhibitory concentration. In kind it is cell-based.
Data set [4] deals with HL-60 cells, HGC-27 cells, HLC-1 cells. Briefly: Antitumor action, comparison over the tumor cells of Table 10. In kind it is cell-based, human. The conditions noted are these: from the 50% growth inhibitory concentrations of Table 10. The text has this:
Solutions in each well were serially diluted with a fresh preparation of the same RPMI1640 medium (pH 7.2) as used in the above.
HL-60 cells (ATCC CCL-240) derived from a patient with acute promyelocytic leukemia, HGC-27 cells (RCB0500) derived from a patient with gastric cancer, and HLC-1 cells (RCB0083) derived from a patient with lung adenocarcinoma were respectively suspended in fresh preparations of the same RPMI1640 medium (pH 7.2) as used in the above to give respective cell concentrations of 4×10^5 cells/ml, 4×10^5 cells/ml, and 2×10^6 cells/ml. Each cell suspension was distributed to a microplate in a volume of 50 μl/well and incubated at 37° C. for 48 hours in a 5 v/v % CO2 incubator. To each microplate, a 25 v/v % aqueous glutaraldehyde solution was added in a volume of 20 μl/well, and the microplate was allowed to stand for 15 min to fix the cells. Then, the cells adhered to the wells were washed with water, admixed with a 0.05 w/v % aqueous methylene blue solution in a volume of 100 μl/well, and further allowed to stand for 15 min to stain the cells. Thereafter, an excessive amount of the staining solution was removed from the wells by washing with water, and the cells were dried, admixed with 300 μl/well of 0.33 N hydrochloric acid, stirred sufficiently, and measured for absorption at a wavelength of 620 nm. […]

The subject of data set [5] is C6 cells. The data set can be described thus: Apoptosis controlling action, propidium iodide flow cytometry. The data set is classed as cell-based, rat. The conditions noted are these: C6 cells (1 × 10^5 cells/ml). Here is the method:
The solution was distributed to a microplate in one milliliter per well, and the solution in each well was diluted in series with a fresh preparation of the same medium as used in the above.
HL-60 cells, ATCC CCL-240, derived from a patient with acute promyelocytic leukemia; U-937 cells, ATCC CRL-1593.2, derived from a patient with human histiocytic lymphoma; HGC-27 cells, RCB0500, derived from a patient with gastric cancer; HLC-1 cells, RCB0083, derived from a patient with lung adenocarcinoma; and C6 cells, ATCC CCL-107, derived from rat glial tumor, were respectively suspended in RPMI1640 medium (pH 7.2) to give a cell density of 1×10^6 cells/ml or 2×10^5 cells/ml. To the microplate, containing a one milliliter dilution of 20, 10 or 5.0 μg/ml of Compound 1, was added one milliliter per well of either of the above cell suspensions and used for test systems. All the test systems were made duplex and respectively subjected to 24- and 48-hour incubations in a 5 v/v % CO2 incubator at 37° C. A system free of Compound 1 was provided and treated similarly as above and used for control.
According to the method by I. Nicoletti et al. in Journal of Immunological Methods, Vol. 139, pp. 271-279 (1991), the apoptosis-induced cells in the test systems and control were stained by propidium iodide and determined for the percentage of the stained cells to the total cells in such a manner that transferring each of the cultures to polypropylene tubes, centrifuging the tubes, removing the resulting supernatants, washing the cells' sediments with phosphate buffered saline containing 0.3 v/v % calf serum albumin, and further centrifuging the washed cells to remove supernatants. The newly formed sediments were respectively mixed with 50 μg/ml of propidium iodide commercialized by Sigma Chemical Company, St. Louis, Mo., USA, 0.1 w/v % sodium citrate, and0.1 w/v % “TRITON X-100”, a surfactant commercialized by Sigma Chemical Company, St. Louis, Mo., USA, in respective volumes of 1.5 ml to stain the cells by propidium iodide. The stained cells were stored at 4° C. in the dark overnight. The stained cells of each test system were analyzed on “EPICS PROFILE II”, a flow cytometry commercialized by Beckman Coulter, Inc., CA, USA. Based on the data the percentage of the stained cells to the total cells in each test system was measured for apoptosis occurrence.
On the technique in general: In flow cytometry, cells or beads pass a laser one at a time.

Data set [6] deals with HL-60 cells. Briefly: Antitumor action: growth inhibition, methylene blue staining. The data set is classed as cell-based. The conditions noted are these: Homo sapiens, HL-60, 48 h, read-out: 50% growth inhibitory concentration. Here is the method:
(§1) Solutions in each well were serially diluted with a fresh preparation of the same RPMI1640 medium (pH 7.2) as used in the above. […] Each cell suspension was distributed to a microplate in a volume of 50 μl/well and incubated at 37° C. for 48 hours in a 5 v/v % CO2 incubator. To each microplate, a 25 v/v % aqueous glutaraldehyde solution was added in a volume of 20 μl/well, and the microplate was allowed to stand for 15 min to fix the cells. Then, the cells adhered to the wells were washed with water, admixed with a 0.05 w/v % aqueous methylene blue solution in a volume of 100 μl/well, and further allowed to stand for 15 min to stain the cells. Thereafter, an excessive amount of the staining solution was removed from the wells by washing with water, and the cells were dried, admixed with 300 μl/well of 0.33 N hydrochloric acid, stirred sufficiently, and measured for absorption at a wavelength of 620 nm. In parallel, as a control, a system free of a test sample was provided and treated similarly as in the test samples. […]

Data set [7] has as its system HLC-1 cells. Described as above. To be noted: Homo sapiens, 48 h, read-out: 50% growth inhibitory concentration. In kind it is cell-based. The protocol:
as §1

In data set [8] the test system is HGC-27 cells. Described as above. In kind it is cell-based. To be noted: Homo sapiens, HGC-27, 48 h, read-out: 50% growth inhibitory concentration. Here is the method: as §1

In the case of `O=C1c2ccccc2-n2c1nc1ccccc1c2=O` [Compound 1, 6,12-dihydro-6,12-dioxoindolo[2,1-b]quinazoline], the MIC in data set [1] (Helicobacter pylori, NCTC11638, read-out: Minimum inhibitory concentration) is 2.5 µg/mL (≈ 10.1 µM). Also, in data set [1] (comment on Table 8), the “Inhibition of the growth of Helicobacter pylori (in words)” value is listed as “strongly inhibited the growth”. In addition, in data set [2], the Water-solubility entry is reported as “insufficient water-solubility”. In addition, the IC50 in data set [3] is 13 µg/mL (≈ 52.4 µM); in data set [6], 4.2 µg/mL (≈ 16.9 µM); in data set [7], 2.2 µg/mL (≈ 8.86 µM); in data set [8], 1.5 µg/mL (≈ 6.04 µM). Further, the “Antitumor action relative to Compound 2” value in data set [4] is on record as no less than 10 times. Moreover, the Apoptosis occurrence in data set [5] (24 hours, 2.5 μg/ml, control 0.3) is reported as 15.9%; in data set [5] (24 hours, 5.0 μg/ml, control 0.3) it was 18.4%; in data set [5] (24 hours, 10 μg/ml, control 0.3) it was 27.6%; in data set [5] (48 hours, 2.5 μg/ml, control 0.4) it was 38.4%; in data set [5] (48 hours, 5.0 μg/ml, control 0.4), 64.8%; in data set [5] (48 hours, 10 μg/ml, control 0.4), 67.1%.
